Test system: Chlamydia
Assay: Chronic inflammatory diseases of uterus and appendages, 250 mg i.m., 10 injections, with BAT (ofloxacin)
Format: in vivo, human

In the case of CC1COc2c(N3CCN(C)CC3)c(F)cc3c(=O)c(C(=O)O)cn1c23 (stereo not drawn) [Basic antibacterial therapy, BAT, ofloxacin], the “Alpha-interferon, produced by the peripheral blood leukocytes, induced in culture by the Newcastle disease virus, mean” value (After treatment) is reported as 5.3 log2 IU/ml, the “Amount of cytoplasmic granules in peripheral blood PNLs, mean” value (After treatment) is reported as 10.2 and the “Gamma-interferon, produced by the peripheral blood leukocytes, induced in culture by staphylococcus enterotoxin A, mean” value (After treatment) is reported as 4.7 log2 IU/ml. The “Serum interferon, mean” value (After treatment) was 0.8 log2 IU/ml, the “Alpha-interferon, produced by the peripheral blood leukocytes, induced in culture by the Newcastle disease virus, mean” value (Before treatment) was 5.1 log2 IU/ml and the “Amount of cytoplasmic granules in peripheral blood PNLs, mean” value (Before treatment) was 8.5. The “Gamma-interferon, produced by the peripheral blood leukocytes, induced in culture by staphylococcus enterotoxin A, mean” value (Before treatment) was 4.7 log2 IU/ml, the “Serum interferon, mean” value (Before treatment) was 0.2 log2 IU/ml and the Etiological recovery (PCR control) was 69%.

— patent US7846939B2, “Salts and mixture of 9-oxoacridine-10-acetic acid with 1-alkylamino-1-desoxy-polyols, pharmaceutical compositions containing said agents and treatment methods” (priority 2005, dated 2010)
